According to publication PMC7486443, “Generation of Phenothiazine with Potent Anti-TLK1 Activity for Prostate Cancer Therapy” (iScience, 2020):

How the values were obtained:
Test in all cases: biochemical
Parameters in all cases: DiscoverX KINOMEscan scanMAX competition binding panel, single concentration, percent of control; remaining binding: dose or concentration left out as unconfirmed
Conditions in all cases: KINOMEscan binding, percent of control; read-out: Table S4_SCANMAX REPORT - related to Fig. 1 / Percent Control
[1] = target: T1, VEGFR2 (Homo sapiens, UniProt P35968)
T1 construct: gene KDR

[2] = target: ACVR1B (Homo sapiens, UniProt P36896)
[3] = target: T2, DCAMKL3 (Homo sapiens, UniProt Q9C098)
T2 construct: gene DCLK3

[4] = target: T3, YSK4 (Homo sapiens, UniProt Q56UN5)
T3 construct: gene MAP3K19

[5] = target: HASPIN (Homo sapiens, UniProt Q8TF76)
[6] = target: DAPK2 (Homo sapiens, UniProt Q9UIK4)
[7] = target: EIF2AK1 (Homo sapiens, UniProt Q9BQI3)
[8] = target: WNK4 (Homo sapiens, UniProt Q96J92)
[9] = target: MAP4K3 (Homo sapiens, UniProt Q8IVH8)
[10] = target: MAST1 (Homo sapiens, UniProt Q9Y2H9)
[11] = target: MKNK2 (Homo sapiens, UniProt Q9HBH9)
[12] = target: PKN1 (Homo sapiens, UniProt Q16512)
[13] = target: FLT3(ITD,D835V) (Homo sapiens, UniProt P36888, D835V/ITD)
[14] = target: FLT3(D835H) (Homo sapiens, UniProt P36888, D835H)
[15] = target: T4, DCAMKL1 (Homo sapiens, UniProt O15075)
T4 construct: gene DCLK1

[16] = target: T5, MLK1 (Homo sapiens, UniProt P80192)
T5 construct: gene MAP3K9

[17] = target: T6, ICK (Homo sapiens, UniProt Q9UPZ9)
T6 construct: gene CILK1

[18] = target: ROCK2 (Homo sapiens, UniProt O75116)
ROCK2, sequence (O75116 whole entry): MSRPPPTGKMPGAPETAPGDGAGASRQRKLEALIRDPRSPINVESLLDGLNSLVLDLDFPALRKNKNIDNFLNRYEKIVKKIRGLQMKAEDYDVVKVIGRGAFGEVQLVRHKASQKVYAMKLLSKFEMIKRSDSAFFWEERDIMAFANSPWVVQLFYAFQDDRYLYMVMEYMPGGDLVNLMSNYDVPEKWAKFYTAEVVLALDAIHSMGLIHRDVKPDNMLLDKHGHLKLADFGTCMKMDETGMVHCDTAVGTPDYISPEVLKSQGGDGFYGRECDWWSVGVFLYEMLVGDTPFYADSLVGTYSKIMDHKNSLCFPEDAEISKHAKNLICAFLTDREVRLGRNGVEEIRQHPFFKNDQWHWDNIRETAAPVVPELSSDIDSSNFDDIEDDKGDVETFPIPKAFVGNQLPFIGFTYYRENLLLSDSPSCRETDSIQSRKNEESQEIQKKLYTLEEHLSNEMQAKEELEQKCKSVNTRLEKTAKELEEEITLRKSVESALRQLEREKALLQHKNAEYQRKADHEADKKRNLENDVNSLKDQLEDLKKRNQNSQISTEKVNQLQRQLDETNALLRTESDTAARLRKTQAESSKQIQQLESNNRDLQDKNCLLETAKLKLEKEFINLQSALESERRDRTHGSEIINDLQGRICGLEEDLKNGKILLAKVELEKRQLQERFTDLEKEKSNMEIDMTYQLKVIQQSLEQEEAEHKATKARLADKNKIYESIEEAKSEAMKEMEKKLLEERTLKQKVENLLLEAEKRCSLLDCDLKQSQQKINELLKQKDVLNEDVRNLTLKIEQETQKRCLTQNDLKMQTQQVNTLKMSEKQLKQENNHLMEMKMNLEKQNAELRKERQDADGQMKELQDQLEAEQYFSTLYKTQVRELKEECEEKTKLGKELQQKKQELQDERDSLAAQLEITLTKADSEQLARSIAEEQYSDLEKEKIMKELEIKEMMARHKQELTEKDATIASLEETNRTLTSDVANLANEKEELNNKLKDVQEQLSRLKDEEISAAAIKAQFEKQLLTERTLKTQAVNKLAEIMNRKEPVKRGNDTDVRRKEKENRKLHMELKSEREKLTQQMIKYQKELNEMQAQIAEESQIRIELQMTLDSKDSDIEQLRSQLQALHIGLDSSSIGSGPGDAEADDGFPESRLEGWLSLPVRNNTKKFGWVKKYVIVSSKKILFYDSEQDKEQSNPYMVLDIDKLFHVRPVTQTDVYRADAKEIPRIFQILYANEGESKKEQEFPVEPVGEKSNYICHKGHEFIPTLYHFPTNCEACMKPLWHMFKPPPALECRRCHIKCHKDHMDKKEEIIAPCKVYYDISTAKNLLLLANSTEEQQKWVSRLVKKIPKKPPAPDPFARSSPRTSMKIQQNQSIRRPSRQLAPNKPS

HASPIN, sequence (Q8TF76 whole entry): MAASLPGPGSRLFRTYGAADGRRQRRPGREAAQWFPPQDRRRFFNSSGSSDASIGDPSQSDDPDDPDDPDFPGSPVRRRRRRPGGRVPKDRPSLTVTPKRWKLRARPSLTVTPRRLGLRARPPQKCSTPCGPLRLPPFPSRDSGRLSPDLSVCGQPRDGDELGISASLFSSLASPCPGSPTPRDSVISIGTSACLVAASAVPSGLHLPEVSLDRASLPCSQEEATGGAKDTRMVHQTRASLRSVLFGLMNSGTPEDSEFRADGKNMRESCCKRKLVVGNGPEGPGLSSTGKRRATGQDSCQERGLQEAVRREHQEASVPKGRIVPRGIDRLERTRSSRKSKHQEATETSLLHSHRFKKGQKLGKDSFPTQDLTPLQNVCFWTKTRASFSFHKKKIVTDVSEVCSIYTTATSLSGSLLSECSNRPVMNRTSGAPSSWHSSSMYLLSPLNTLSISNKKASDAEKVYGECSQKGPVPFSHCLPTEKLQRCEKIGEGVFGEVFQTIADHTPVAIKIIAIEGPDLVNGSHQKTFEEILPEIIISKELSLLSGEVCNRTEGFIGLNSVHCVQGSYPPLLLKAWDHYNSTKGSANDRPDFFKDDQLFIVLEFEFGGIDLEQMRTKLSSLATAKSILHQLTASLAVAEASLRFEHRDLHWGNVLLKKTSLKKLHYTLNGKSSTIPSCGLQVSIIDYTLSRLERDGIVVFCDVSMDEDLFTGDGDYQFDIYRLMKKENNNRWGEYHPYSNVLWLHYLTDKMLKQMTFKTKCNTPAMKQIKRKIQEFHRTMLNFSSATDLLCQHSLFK
MAP4K3, sequence (Q8IVH8 whole entry): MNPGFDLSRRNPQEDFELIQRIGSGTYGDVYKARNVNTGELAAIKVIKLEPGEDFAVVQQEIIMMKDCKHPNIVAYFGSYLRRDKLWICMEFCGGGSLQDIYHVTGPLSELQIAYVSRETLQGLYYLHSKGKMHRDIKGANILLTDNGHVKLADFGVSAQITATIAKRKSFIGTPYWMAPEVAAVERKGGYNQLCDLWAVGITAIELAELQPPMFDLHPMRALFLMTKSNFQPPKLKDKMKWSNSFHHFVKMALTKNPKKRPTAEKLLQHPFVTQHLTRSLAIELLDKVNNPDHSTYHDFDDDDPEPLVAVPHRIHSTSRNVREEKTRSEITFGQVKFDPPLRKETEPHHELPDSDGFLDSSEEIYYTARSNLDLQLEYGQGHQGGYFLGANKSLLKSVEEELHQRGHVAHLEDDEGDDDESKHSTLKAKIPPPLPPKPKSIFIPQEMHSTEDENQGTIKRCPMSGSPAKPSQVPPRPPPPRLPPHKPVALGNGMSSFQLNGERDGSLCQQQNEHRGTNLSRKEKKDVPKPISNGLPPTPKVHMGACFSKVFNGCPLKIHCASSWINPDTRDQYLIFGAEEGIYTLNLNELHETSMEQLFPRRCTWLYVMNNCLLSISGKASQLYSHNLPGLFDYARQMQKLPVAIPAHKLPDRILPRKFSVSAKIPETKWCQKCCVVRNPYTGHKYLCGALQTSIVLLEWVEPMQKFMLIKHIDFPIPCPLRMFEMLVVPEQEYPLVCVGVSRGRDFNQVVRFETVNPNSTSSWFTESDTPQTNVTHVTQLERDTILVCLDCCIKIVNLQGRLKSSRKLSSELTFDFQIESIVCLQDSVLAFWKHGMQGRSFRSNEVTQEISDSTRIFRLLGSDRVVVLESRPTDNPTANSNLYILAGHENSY
ACVR1B, sequence (P36896 whole entry): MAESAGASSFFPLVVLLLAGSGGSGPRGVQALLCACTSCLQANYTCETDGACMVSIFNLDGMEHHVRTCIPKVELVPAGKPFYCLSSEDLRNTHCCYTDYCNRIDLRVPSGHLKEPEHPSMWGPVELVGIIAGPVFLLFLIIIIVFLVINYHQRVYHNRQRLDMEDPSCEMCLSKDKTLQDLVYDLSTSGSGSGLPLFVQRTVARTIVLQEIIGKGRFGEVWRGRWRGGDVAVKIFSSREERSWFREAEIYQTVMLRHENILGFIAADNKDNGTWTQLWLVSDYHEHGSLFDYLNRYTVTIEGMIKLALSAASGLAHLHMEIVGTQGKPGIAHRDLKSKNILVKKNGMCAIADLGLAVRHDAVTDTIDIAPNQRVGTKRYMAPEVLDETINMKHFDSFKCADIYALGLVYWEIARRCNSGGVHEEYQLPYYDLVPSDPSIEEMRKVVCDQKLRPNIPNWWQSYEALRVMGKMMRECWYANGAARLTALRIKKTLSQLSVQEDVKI
T4 sequence (O15075 whole entry): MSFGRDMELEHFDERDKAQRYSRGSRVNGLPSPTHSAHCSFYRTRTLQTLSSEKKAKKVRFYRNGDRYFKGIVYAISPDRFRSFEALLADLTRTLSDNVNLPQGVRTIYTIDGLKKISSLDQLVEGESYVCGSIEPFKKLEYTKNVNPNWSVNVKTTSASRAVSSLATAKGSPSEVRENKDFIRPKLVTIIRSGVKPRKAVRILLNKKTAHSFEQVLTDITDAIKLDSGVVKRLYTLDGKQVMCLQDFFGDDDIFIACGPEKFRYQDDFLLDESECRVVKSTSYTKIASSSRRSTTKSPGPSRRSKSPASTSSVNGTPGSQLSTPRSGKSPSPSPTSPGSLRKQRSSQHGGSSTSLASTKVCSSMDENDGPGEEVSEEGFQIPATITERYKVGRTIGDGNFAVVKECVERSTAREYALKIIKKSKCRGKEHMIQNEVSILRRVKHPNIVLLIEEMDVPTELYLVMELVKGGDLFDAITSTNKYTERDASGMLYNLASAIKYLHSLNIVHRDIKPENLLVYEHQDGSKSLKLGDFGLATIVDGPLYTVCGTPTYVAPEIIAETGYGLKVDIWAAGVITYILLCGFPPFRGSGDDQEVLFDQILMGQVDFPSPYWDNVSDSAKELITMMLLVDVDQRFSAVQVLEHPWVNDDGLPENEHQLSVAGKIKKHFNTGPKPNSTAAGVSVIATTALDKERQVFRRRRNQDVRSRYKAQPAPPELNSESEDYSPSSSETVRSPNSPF
DAPK2, sequence (Q9UIK4 whole entry): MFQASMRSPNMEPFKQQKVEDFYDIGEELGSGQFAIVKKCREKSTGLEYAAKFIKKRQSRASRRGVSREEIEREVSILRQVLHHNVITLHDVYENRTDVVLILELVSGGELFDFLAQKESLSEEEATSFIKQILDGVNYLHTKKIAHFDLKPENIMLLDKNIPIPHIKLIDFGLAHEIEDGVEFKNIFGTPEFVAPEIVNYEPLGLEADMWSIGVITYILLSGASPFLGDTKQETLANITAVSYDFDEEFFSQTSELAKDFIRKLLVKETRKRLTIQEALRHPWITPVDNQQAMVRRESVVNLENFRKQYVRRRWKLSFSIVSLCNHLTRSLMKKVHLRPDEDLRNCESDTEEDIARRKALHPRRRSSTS

## c1ccc2c(c1)Sc1ccccc1N2CCN1CCOCC1 [J54]
[1]
  remaining binding: 100%
[2]
  remaining binding: 88%
[3]
  remaining binding: 95%
[4]
  remaining binding: 86%
[5]
  remaining binding: 94%
[6]
  remaining binding: 97%
[7]
  remaining binding: 90%
[8]
  remaining binding: 91%
[9]
  remaining binding: 100%
[10]
  remaining binding: 100%
[11]
  remaining binding: 90%
[12]
  remaining binding: 100%
[13]
  remaining binding: 57%
[14]
  remaining binding: 100%
[15]
  remaining binding: 100%
[16]
  remaining binding: 97%
[17]
  remaining binding: 100%
[18]
  remaining binding: 98%
